Calls of active or inactive are those of the source. The calls are words filed in the database; no cut-off is given here.

The record followed here is ChEMBL document CHEMBL3576862, “Peptidic inhibitors for in vitro pentamer formation of human papillomavirus capsid protein l1” (ACS Med Chem Lett, 2015).

Experiment [1] concerns the target T1, Major capsid protein L1 (Human papillomavirus 16, UniProt P03101).
T1 sequence (P03101 whole entry): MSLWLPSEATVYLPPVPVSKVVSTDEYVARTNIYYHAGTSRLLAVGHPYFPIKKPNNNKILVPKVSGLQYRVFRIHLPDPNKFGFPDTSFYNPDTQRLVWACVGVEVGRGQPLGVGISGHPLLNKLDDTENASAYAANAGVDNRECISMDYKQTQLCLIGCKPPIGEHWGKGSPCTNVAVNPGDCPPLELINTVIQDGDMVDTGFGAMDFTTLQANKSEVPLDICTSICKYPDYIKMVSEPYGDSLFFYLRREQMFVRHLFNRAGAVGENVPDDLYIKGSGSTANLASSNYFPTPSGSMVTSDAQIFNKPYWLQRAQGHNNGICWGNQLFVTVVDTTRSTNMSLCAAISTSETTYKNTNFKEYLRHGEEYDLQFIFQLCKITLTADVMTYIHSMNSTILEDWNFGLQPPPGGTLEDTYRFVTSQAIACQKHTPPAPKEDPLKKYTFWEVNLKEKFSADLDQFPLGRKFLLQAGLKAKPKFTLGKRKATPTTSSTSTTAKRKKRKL
In words: (§1) Inhibition of pentamer formation of GST-tagged HPV16 major capsid protein L1 assessed as increased L1-m peak formation incubated with compound after overnight PPase-mediated digestion by size-exclusion chromatography. A general note: SEC sorts molecules by how far they enter the pores of the column.

Experiment [2] deals with T2, Major capsid protein L1 (Human papillomavirus 16) (UniProt P03101).
T2 sequence (whole entry): T1 sequence (P03101 whole entry)
The experiment is described as §1.

In experiment [3] the target is T2, Major capsid protein L1 (Human papillomavirus 16). In words: Inhibition of GST-tagged HPV16 major capsid protein L1 pentamer assembly assessed as reduction in pentamer assembly in presence of PPase by static light scattering method.
The target is the same in experiment [4]. In words: Inhibition of GST-tagged HPV16 major capsid protein L1 pentamer assembly assessed as reduction in pentamer assembly at 1:50 ratio of pentamer to compound in presence of PPase by static light scattering method.
The target is the same in experiment [5]. In words: Inhibition of GST-tagged HPV16 major capsid protein L1 pentamer assembly assessed as size distribution of hydrodynamic diameter of pentamer assembly in presence of PPase by dynamic light scattering method (reference value: 14.9 nanometer).
Experiment [6] concerns the target T1, Major capsid protein L1. In words: Binding affinity to GST-tagged HPV16 major capsid protein L1 using CY3-labeled compound by FRET assay.
The target of experiment [7] is T2, Major capsid protein L1 (Human papillomavirus 16). In words: Binding affinity to GST-tagged HPV16 major capsid protein L1 assessed as increase in thermal stability by measuring melting temperature at 1:100 ratio of pentamer to compound by UV cloud point measurement assay.
For experiment [8] the target is unchanged. In words: Inhibition of pentamer formation of GST-tagged HPV16 major capsid protein L1 assessed as increased L1-m peak formation incubated with compound after overnight PPase-mediated digestion and measured after dialysis by dynamic light scattering method.
For experiment [9] the target is unchanged. In words: Inhibition of GST-tagged HPV16 major capsid protein L1 pentamer assembly assessed as size distribution of hydrodynamic diameter of pentamer assembly in presence of PPase measured after dialysis by dynamic light scattering method and transmission electron microscopy.
In experiment [10] the target is T3, Major capsid protein L1 (human papillomavirus 58) (UniProt P26535).
T3 sequence (whole entry): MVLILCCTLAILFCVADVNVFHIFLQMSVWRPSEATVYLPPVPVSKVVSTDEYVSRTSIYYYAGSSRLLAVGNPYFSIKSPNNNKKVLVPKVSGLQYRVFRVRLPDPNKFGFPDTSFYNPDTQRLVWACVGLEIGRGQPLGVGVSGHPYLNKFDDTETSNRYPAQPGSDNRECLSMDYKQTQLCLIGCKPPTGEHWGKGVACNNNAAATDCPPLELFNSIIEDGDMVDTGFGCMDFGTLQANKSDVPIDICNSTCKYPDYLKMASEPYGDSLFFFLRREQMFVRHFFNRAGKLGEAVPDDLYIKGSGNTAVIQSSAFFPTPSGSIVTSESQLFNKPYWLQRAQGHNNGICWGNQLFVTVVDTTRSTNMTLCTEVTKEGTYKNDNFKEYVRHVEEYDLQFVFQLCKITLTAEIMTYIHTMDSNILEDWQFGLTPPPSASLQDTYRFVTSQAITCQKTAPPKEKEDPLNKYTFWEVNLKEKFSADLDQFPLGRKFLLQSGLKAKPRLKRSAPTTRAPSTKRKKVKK
In words: Inhibition of GST-tagged HPV58 major capsid protein L1 pentamer formation at 1:100 ratio of pentamer to compound in presence of PPase by FPLC method.

In experiment [11] the target is T4, Major capsid protein L1 (human papillomavirus 18) (UniProt P06794).
T4 sequence (whole entry): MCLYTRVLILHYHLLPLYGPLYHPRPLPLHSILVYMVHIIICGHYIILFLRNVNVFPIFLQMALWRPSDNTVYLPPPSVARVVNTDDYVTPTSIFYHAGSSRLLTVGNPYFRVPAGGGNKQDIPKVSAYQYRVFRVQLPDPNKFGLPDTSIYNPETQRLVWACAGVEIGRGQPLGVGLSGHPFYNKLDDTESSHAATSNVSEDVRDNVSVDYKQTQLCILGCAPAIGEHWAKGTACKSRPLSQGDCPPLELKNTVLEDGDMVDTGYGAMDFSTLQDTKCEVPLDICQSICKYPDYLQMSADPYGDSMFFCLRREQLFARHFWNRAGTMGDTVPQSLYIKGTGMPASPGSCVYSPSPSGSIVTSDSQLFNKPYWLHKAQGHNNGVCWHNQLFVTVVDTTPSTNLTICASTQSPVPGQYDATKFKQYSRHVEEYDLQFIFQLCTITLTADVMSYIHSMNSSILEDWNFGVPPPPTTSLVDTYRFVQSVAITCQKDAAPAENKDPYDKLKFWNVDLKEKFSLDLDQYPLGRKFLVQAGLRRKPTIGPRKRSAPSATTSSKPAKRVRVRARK
In words: Inhibition of GST-tagged HPV18 major capsid protein L1 pentamer formation at 1:100 ratio of pentamer to compound in presence of PPase by FPLC method.

Experiment [12] addresses T2, Major capsid protein L1 (Human papillomavirus 16). In words: Inhibition of GST-tagged HPV16 major capsid protein L1 pentamer formation at 1:100 ratio of pentamer to compound in presence of PPase by FPLC method.
The target is the same in experiment [13]. In words: Binding affinity to GST-tagged HPV16 major capsid protein L1 pentamer formation at 1:100 ratio of pentamer to compound by CD spectroscopy method.
For experiment [14] the target is unchanged. In words: Binding affinity to GST-tagged HPV16 major capsid protein L1 by FRET assay.

For `CC(C)C[C@H](NC(=O)CNC(=O)[C@H](C)NC(=O)[C@H](CCC(N)=O)NC(=O)[C@H](CC(C)C)NC(=O)[C@H](CC(C)C)NC(=O)[C@H](Cc1ccccc1)NC(=O)[C@H](CCCCN)NC(=O)[C@H](CCCNC(=N)N)NC(=O)CNC(=O)[C@H](CC(C)C)NC(=O)[C@@H]1CCCN1)C(=O)N[C@@H](CCCCN)C(=O)N[C@@H](C)C(=O)N[C@@H](CCCCN)C(=O)O`, the IC50 at Major capsid protein L1 [1] came out at 48.1 nM.
On to `CC(C)C[C@H](NC(=O)[C@H](CC(C)C)NC(=O)[C@H](Cc1ccccc1)NC(=O)[C@H](CCCCN)NC(=O)[C@H](CCCNC(=N)N)NC(=O)CNC(=O)[C@H](CC(C)C)NC(=O)[C@@H]1CCCN1C(=O)[C@H](Cc1ccccc1)NC(=O)[C@H](CCC(N)=O)NC(=O)[C@H](CC(=O)O)NC(=O)[C@H](CC(C)C)NC(=O)[C@@H](N)CC(=O)O)C(=O)N[C@@H](CCC(N)=O)C(=O)O`, for which the inhibition result in [2] and in experiment [3] was “Dose-dependent effect” throughout. Besides, the IC50 on Major capsid protein L1 [1] was determined as 19.4 nM. Also, the inhibition result in [4] and in experiment [10] was “Active” in each case. In addition, the Activity in experiment [5] turned out to be 9.4 nm. This compound came in with a Kd at Major capsid protein L1 [6] of 600 nM. Further, the result in [7] was Active. The result in experiment [8] and in experiment [9] was inactive. Also, the inhibition result in [11] is “inactive”.
`CC(C)C[C@H](NC(=O)[C@H](CC(C)C)NC(=O)[C@H](Cc1ccccc1)NC(=O)[C@H](CCCCN)NC(=O)[C@H](CCCNC(=N)N)NC(=O)CNC(=O)[C@H](CC(C)C)NC(=O)[C@@H]1CCCN1C(=O)[C@H](Cc1ccccc1)NC(=O)[C@H](CCC(N)=O)NC(=O)[C@H](CC(=O)O)NC(=O)[C@H](CO)NC(=O)[C@@H](N)CC(=O)O)C(=O)N[C@@H](CCC(N)=O)C(=O)O`: the inhibition result in experiment [12] was “inactive”.
H-DLDQFPAGRKFLLQ-OH: the inhibition entry in experiment [12] was “inactive”. For the same compound, in experiment [13], the outcome was inactive.
As for H-DLDQFPLGAKFLLQ-OH, in experiment [12], the inhibition entry is “inactive”. In addition, the outcome in experiment [13] was inactive.
H-DLDQFPLGR-OH: in experiment [12], the inhibition entry was “inactive”.
Regarding H-DLDQFPSSSKFLLQ-OH, the inhibition result in experiment [12] was “inactive”. In addition, the result in experiment [13] was inactive.
On to H-DLDQSPLGRKFLLQ-OH, for which the inhibition entry in experiment [12] is “inactive”.
With H-PLGRKFL-OH, the inhibition result in experiment [12] is “inactive”.
On the same count and under the same terms, to H-QFPLGRKFL-OH belongs “Active”.
Turning to H-SGFLRQLGFDKLQD-OH, the inhibition result in experiment [2] is “inactive”. Further, the result in experiment [14] and in experiment [7] was inactive.

A word on the IC50: it is the concentration at which inhibition is half-maximal. Broadly, the Kd is the concentration at which binding is half-saturated. A low value points to a tighter complex.
